Read-outs that look alike come from different tables or passages of the source.

This is an account of results in patent US8741911B2, “Raf inhibitor compounds” (Eli Lilly and Company, priority 2012, dated 2014).

One assay addresses B-Raf (V600E) (Homo sapiens, UniProt P15056, V600E). In words: ActivX KiNativ A375 whole cell lysate assay. Format: binding.
The test system of a further assay is A375 cells. Nature of the assay: CellTiter-Blue A375 cell proliferation assay. The assay is classed as cell-based. Particulars: Homo sapiens, A-375, read-out: Cell Proliferation Inhibition IC50. As for the experimental part:
(§1) Collection (ATCC, Manassas, Va.). Briefly, cells are grown in DMEM High Glucose supplemented with 10% characterized fetal bovine serum (Invitrogen, Carlsbad, Calif.) and 1% Penicillin/Streptomycin/L-Glutamine at 37 degrees Celsius, 5% CO2, and 95% humidity. Cells are allowed to expand until reaching 70-95% confluency at which point they are subcultured or harvested for assay use. A serial dilution of test compound is dispensed into a 384-well black clear bottom plate in triplicate. Six hundred twenty-five cells are added per well in 50 μL complete growth medium in the 384-well plate. Plates are incubated for 67 hours at 37 degrees Celsius, 5% CO2, and 95% humidity. At the end of the incubation period, 10 μL of a 440 μM solution of resazurin (Sigma, St. Louis, Mo.) in PBS is added to each well of the plate and plates are incubated for an additional 5 hours at 37 degrees Celsius, 5% CO2, and 95% humidity. Plates are read on a Synergy2 reader (Biotek, Winooski, Vt.) using an excitation of 540 nm and an emission of 600 nm. Data is analyzed using Prism software (Graphpad, San Diego, Calif.) to calculate IC50 values.
(§2) The A375, HT-29, and Colo-205 cells (ATCC) harbor a V600E mutation.

In the next assay the test system is HT-29 cells. In words: CellTiter-Blue HT-29 cell proliferation assay. Format: cell-based. To be noted: Homo sapiens; HT-29, CellTiter-Blue; read-out: Cell Proliferation Inhibition IC50. As for the experimental part:
as §1, with “HT-29 cells (catalog #HTB-38) are obtained from the American Type Culture Collection” for “Collection”, “in McCoy's 5A” for “in DMEM High Glucose”, “Carlsbad, Calif.),” for “Carlsbad, Calif.)”, “reaching 75-90%” for “reaching 70-95%”, “triplicate. One thousand two-hundred fifty” for “triplicate. Six hundred twenty-five”
as §2

Another assay concerns Colo205 cells. In words: CellTiter-Blue Colo-205 cell proliferation assay. To be noted: Homo sapiens; Colo-205, CellTiter-Blue; read-out: Cell Proliferation Inhibition IC50. Format: cell-based. The method, then:
as §1, with “Colo205 cells (catalog #HB-8307) are obtained from the American Type Culture Collection” for “Collection”, “in RPMI 1640” for “in DMEM High Glucose”, “Carlsbad, Calif.), 1 mM sodium pyruvate,” for “Carlsbad, Calif.)”, “reaching 30-60%” for “reaching 70-95%”, “triplicate. One thousand two-hundred fifty” for “triplicate. Six hundred twenty-five”
as §2
For orientation: The colour change of resazurin is a common sign of viable cells or microbes.

The test system of a further assay is HL-60. In words: CellTiter-Glo proliferation and viability assay. Particulars: Homo sapiens. The assay is classed as cell-based. For orientation: In ATP-based viability assays light output follows the ATP content of the culture.
For a further assay, the system named is NCI-H2030. Nature of the assay: CellTiter-Glo proliferation and viability assay. Format: cell-based. Particulars: Homo sapiens.
The subject of a further assay is NCI-H1299. In words: CellTiter-Glo proliferation and viability assay. The assay is classed as cell-based. Particulars: Homo sapiens.
For a further assay, the system named is LOUCY. In words: CellTiter-Glo proliferation and viability assay. Format: cell-based. Particulars: Homo sapiens, read-out: Abs IC50.
A further assay relates to CaOV-3. In words: CellTiter-Glo proliferation and viability assay. Particulars: Homo sapiens. Format: cell-based.
For a further assay, the system named is PC-3. In words: CellTiter-Glo proliferation and viability assay. Particulars: Homo sapiens. Format: cell-based.
The test system of a further assay is SK-OV-3. In words: CellTiter-Glo proliferation and viability assay. Particulars: Homo sapiens. The assay is classed as cell-based.
Assay [1] deals with phospho-MEK and phospho-ERK in A375 xenograft. Nature of the assay: A375 xenograft single dose pharmacodynamic study. The assay is classed as in vivo, rat. Particulars: two hours post dose, Western Blot. As for the experimental part:
Briefly, 10×10^6 cells (A375) or 5×10^6 cells (HCT-116) in a 1:1 medium and matrigel mix (0.2 mL total volume) are implanted by subcutaneous injection in the hind leg of nude female rats (NIH model No. NIHRNU-M from Taconic). A total of 8 rats in each group are used for the efficacy study, and a total of 3-4 rats in each group are used for a pharmacodynamic study. The Eli Lilly and Company Animal Care and Use Committee approved all the experimental protocols. […] Tumor growth and body weight are monitored over time to evaluate activity and signs of toxicity. Bidimensional measurements of tumors are performed twice a week and tumor volumes are calculated based on mid-axis length and mid-axis width. Tumor volume data are transformed to a log scale to equalize variance across time and treatment groups. The log volume data are analyzed with a two-way repeated measures analysis of variance by time and treatment using the MIXED® procedures in SAS® software (version 8.2). The correlation model for the repeated measures is spatial power. Treated groups are compared to the control group at each time point. The MIXED® procedure is also used separately for each treatment group to calculate adjusted means and standard errors at each time point. […]
In general terms: In western blotting, separated proteins are transferred to a membrane and probed.

Sequence of B-Raf (V600E) (P15056 whole entry V600E): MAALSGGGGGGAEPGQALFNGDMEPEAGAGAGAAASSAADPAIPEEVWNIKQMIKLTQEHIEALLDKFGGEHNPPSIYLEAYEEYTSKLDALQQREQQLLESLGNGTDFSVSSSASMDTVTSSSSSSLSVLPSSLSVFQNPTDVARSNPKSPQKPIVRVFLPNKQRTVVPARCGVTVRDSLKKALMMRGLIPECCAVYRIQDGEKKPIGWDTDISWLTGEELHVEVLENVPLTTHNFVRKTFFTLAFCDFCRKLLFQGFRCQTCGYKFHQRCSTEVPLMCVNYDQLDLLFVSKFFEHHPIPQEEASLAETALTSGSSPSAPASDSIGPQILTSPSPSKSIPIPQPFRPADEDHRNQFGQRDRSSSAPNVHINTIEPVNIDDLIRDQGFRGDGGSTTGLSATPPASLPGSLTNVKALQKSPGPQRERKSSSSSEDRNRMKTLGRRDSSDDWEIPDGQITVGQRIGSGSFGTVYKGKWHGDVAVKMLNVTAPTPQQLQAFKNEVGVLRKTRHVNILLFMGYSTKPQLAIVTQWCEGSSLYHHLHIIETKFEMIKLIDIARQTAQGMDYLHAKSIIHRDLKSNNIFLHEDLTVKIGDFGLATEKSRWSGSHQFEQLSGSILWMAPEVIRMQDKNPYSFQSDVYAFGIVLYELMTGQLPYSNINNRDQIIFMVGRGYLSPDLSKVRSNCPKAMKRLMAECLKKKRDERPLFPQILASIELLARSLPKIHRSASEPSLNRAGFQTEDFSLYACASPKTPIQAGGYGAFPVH

For the compound `CNc1ncc2cc(-c3cc(NC(=O)NCCC(C)(C)C)c(F)cc3C)c(C)nc2n1` [Example 1, 1-(3,3-Dimethylbutyl)-3-(2-fluoro-4-methyl-5-(7-methyl-2-(methylamino)pyrido[2,3-d]pyrimidin-6-yl)phenyl)urea], the inhibition (usually the share of the control response that was lost under treatment) at 0.1 µM at B-Raf (V600E) (100 nM) was 82.9%. Also, the % inhibition (in general, the change of the read-out against control, counted positive when it falls) at B-Raf (V600E) (100 nM, 0.1 µM) is listed as 82%; at B-Raf (V600E) (1000 nM, 1 µM) it was over 98%. At B-Raf (V600E) (1000 nM), this compound gave an inhibition at 1 µM of 96.5%. For the same compound, the IC50 with A375 cells stood at 9 nM; in the assay on HT-29 cells, 7 nM; in the assay on Colo205 cells it was 27 nM; in the assay with HL-60 (read-out: Abs IC50), 0.2 nM; in the assay with HL-60 (read-out: Rel IC50), 0.14 nM; in the assay on NCI-H2030 (read-out: Abs IC50), 0.83 nM. Further, the IC50 in the assay with NCI-H2030 (read-out: Rel IC50) stood at 0.41 nM; in the assay with NCI-H1299 (read-out: Abs IC50) it was 0.91 nM; with NCI-H1299 (read-out: Rel IC50) it was 0.14 nM; in the assay on LOUCY, 6.93 nM; with CaOV-3 (read-out: Abs IC50), 9.58 nM; with CaOV-3 (read-out: Rel IC50) it was 5.32 nM. The IC50 is over 20 nM in the assay on PC-3 (read-out: Abs IC50), over 20 nM with PC-3 (read-out: Rel IC50), over 20 nM in the assay on SK-OV-3 (read-out: Abs IC50) and 10.8 nM in the assay with SK-OV-3 (read-out: Rel IC50). In addition, the “phospho-MEK and phospho-ERK activities, PD effect” value in [1] (single dose 25 mg/kg) is listed as “almost completely eliminated”. Moreover, the “phospho-MEK and phospho-ERK, PD effect” value in assay [1] (single dose 3.125 to 50 mg/kg) was “inhibition was observed in all dose groups”.
